pIC50: −log10 of the molar value. The source made the active and inactive calls. The calls are words filed in the database; no cut-off is given here.
Legend:
Escherichia coli = assay: Antimicrobial activity against Escherichia coli ATCC 8739 at 20.5 to 43.5 ug/ml by microbroth method; assay type: functional, organism-based
HCT-116 [1] = assay: Cytotoxicity against human HCT116 cells assessed as reduction in cell viability after 48 hrs by MTT assay; assay type: functional, cell-based; conditions: HCT-116, 48 h
Staphylococcus aureus = assay: Antimicrobial activity against Staphylococcus aureus ATCC 25923 at 20.5 to 43.5 ug/ml by microbroth method; assay type: functional, organism-based
Pseudomonas aeruginosa = assay: Antimicrobial activity against Pseudomonas aeruginosa ATCC 15442 at 20.5 to 43.5 ug/ml by microbroth method; assay type: functional, organism-based
A549 [2] = assay: Cytotoxicity against human A549 cells assessed as reduction in cell viability after 48 hrs by MTT assay; assay type: functional, cell-based; conditions: A549, 48 h
SK-MEL-5 [3] = assay: Cytotoxicity against human SK-MEL-5 cells assessed as reduction in cell viability after 48 hrs by MTT assay; assay type: functional, cell-based; conditions: SK-MEL-5, 48 h
Enterococcus faecium = assay: Antimicrobial activity against Enterococcus faecium ATCC 49032 at 20.5 to 43.5 ug/ml by microbroth method; assay type: functional, organism-based
MCF7 [4] = assay: Cytotoxicity against human MCF7 cells assessed as reduction in cell viability after 48 hrs by MTT assay; assay type: functional, cell-based; conditions: MCF7, 48 h
Candida albicans = assay: Antifungal activity against Candida albicans ATCC 90027 at 20.5 to 43.5 ug/ml by microbroth method; assay type: functional, organism-based
Bacillus subtilis = assay: Antimicrobial activity against Bacillus subtilis ATCC 49343 at 20.5 to 43.5 ug/ml by microbroth method; assay type: functional, organism-based
PC-3 [5] = assay: Cytotoxicity against human PC3 cells assessed as reduction in cell viability after 48 hrs by MTT assay; assay type: functional, cell-based; conditions: PC-3, 48 h
A549 [6] = assay: Cytotoxicity against human A549 cells assessed as cell survival at 250 uM after 48 hrs by MTT assay; assay type: functional; conditions: A549, 48 h, read-out: Survival
PC-3 [7] = assay: Cytotoxicity against human PC3 cells assessed as cell survival at 250 uM after 48 hrs by MTT assay; assay type: functional; conditions: PC-3, 48 h, read-out: Survival
MCF7 [8] = assay: Cytotoxicity against human MCF7 cells assessed as cell survival at 250 uM after 48 hrs by MTT assay; assay type: functional; conditions: MCF7, 48 h, read-out: Survival
HCT-116 [9] = assay: Cytotoxicity against human HCT116 cells assessed as cell survival at 250 uM after 48 hrs by MTT assay; assay type: functional; conditions: HCT-116, 48 h, read-out: Survival
SK-MEL-5 [10] = assay: Cytotoxicity against human SK-MEL-5 cells assessed as cell survival at 250 uM after 48 hrs by MTT assay; assay type: functional; conditions: SK-MEL-5, 48 h, read-out: Survival

SMILES	Activity (Escherichia coli)	pIC50 (HCT-116 [1])	Activity (Staphylococcus aureus)	Activity (Pseudomonas aeruginosa)	pIC50 (A549 [2])	pIC50 (SK-MEL-5 [3])	Activity (Enterococcus faecium)	pIC50 (MCF7 [4])	Activity (Candida albicans)	Activity (Bacillus subtilis)	pIC50 (PC-3 [5])	viability at 250 µM (A549 [6])	viability at 250 µM (PC-3 [7])	viability at 250 µM (MCF7 [8])	viability at 250 µM (HCT-116 [9])	viability at 250 µM (SK-MEL-5 [10])
COc1cc2c(c(O)c1Cl)C(=O)c1c(O)cc(C[C@H](C)O)cc1[C@@H]2[C@H]1c2cc(C[C@H](C)O)cc(O)c2C(=O)c2c1cc(OC)c(Cl)c2O	inactive	4.86	inactive	inactive	< 4.70	4.71	inactive	< 4.70	inactive	inactive	< 4.70					
COc1cc([C@@H]2c3cc4c(cc3[C@@H](O[C@@H]3O[C@@H]5CO[C@@H](C)O[C@H]5[C@H](O)[C@H]3O)[C@H]3COC(=O)[C@H]23)OCO4)cc(OC)c1O [ETOPOSIDE]												19.7%	45.5%	43.8%	11.6%	26.4%
COc1cc2c(c(O)c1Cl)C(=O)c1c(O)cc(C[C@H](C)O)cc1[C@H]2[C@@H]1c2cc(C[C@H](C)O)cc(O)c2C(=O)c2c1cc(OC)c(Cl)c2O	inactive	4.98	inactive	inactive	< 4.70	4.91	inactive	< 4.70	inactive	inactive	< 4.70					
COc1cc2c(c(O)c1Cl)C(=O)c1c(O)cc(C[C@H](C)O)cc1[C@H]2[C@H]1c2cc(C[C@H](C)O)cc(O)c2C(=O)c2c1cc(OC)c(Cl)c2O	inactive	5.05	inactive	inactive	< 4.70	4.96	inactive	< 4.70	inactive	inactive	< 4.70					

— ChEMBL document CHEMBL4251678, “Coculture of Two Developmental Stages of a Marine-Derived Aspergillus alliaceus Results in the Production of the Cytotoxic Bianthrone Allianthrone A” (J Nat Prod, 2018)
